Data published in US5776742A, “Aldehyde dehydrogenase enzyme” (Roche Vitamins Inc., priority 1996, dated 1998).
Where “and” joins values, the source holds several entries; their conditions need not be identical. Equal values may be shown once. Entries after “also recorded” stand apart in the source; their conditions may differ. Read-outs that look alike come from different tables or passages of the source.

Tests used:
[1] = molecular target: T1, aldehyde dehydrogenase (ADH) (Ketogulonicigenium vulgare, UniProt F9Y7W8); assay: Electron acceptor suitability for L-sorbosone oxidation; assay type: biochemical, Gluconobacter oxydans DSM 4025 (FERM BP-3812); conditions: oxidation of L-sorbosone to 2-keto-L-gulonic acid
T1 sequence (F9Y7W8 1-429): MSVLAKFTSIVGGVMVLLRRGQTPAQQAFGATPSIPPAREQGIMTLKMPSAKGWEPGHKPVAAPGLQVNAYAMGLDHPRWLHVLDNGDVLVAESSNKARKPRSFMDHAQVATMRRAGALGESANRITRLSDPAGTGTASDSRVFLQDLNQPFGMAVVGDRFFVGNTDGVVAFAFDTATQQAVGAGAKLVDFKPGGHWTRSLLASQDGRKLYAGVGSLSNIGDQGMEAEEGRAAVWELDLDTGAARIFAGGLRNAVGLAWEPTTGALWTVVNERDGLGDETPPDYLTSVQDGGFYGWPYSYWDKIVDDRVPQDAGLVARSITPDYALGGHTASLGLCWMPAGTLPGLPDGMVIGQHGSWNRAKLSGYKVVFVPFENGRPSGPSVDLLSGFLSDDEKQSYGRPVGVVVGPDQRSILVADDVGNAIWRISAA

[2] = molecular target: T1, aldehyde dehydrogenase (ADH); assay: Substrate specificity of the ADH; conditions: for activity at 100000 µM: read-out: Relative activity (%)
[3] = molecular target: T1, aldehyde dehydrogenase (ADH); assay: Effects of metal ions, enzyme inhibitors and PQQ on the activity of ADH; assay type: biochemical, Gluconobacter oxydans DSM 4025 (FERM BP-3812); conditions: for inhibition at 1870 µM: read-out: inhibition of the activity
[4] = read-out: Relative activity (%)
[5] = compound 0.950 mM, None = 100, read-out: Relative activity (%)
[6] = compound 1.870 mM, None = 100, read-out: Relative activity (%)

O=C1C(Cl)=CC(=Nc2ccc(O)cc2)C=C1Cl
suitability as electron acceptor (in words) [1]: oxidizes L-sorbosone to 2-keto-L-gulonic acid in the presence of electron acceptors

O=CC(O)CO (racemic) [D,L-Glyceraldehyde]
activity at 100000 µM [2]: 789% | relative activity, times higher than that for L-sorbosone ([2]; substrate vs L-sorbosone): about 8 times

O.O.O.O.O=[N+]([O-])[O-].O=[N+]([O-])[O-].[Ca+2] [Ca(NO3)2.4H2 O]
Relative activity (%) ([3]; metal 0.0387 mM, None = 100): 294% | Relative activity (%) ([3]; metal 0.19 mM, None = 100): 450%

[Ca+2].[Cl-].[Cl-] [CaCl2]
Relative activity (%) ([3]; metal 0.0387 mM, None = 100): 337%

[Ca+2] [Ca^2+]
effect on the enzyme activity (in words) [3]: Stimulator

O.O.O.O.O.O.[Cl][Cu][Cl] [CuCl2.6H2 O]
Relative activity (%) ([3]; metal 0.0387 mM, None = 100): 100% | Relative activity (%) ([3]; metal 0.19 mM, None = 100): 50% | Relative activity (%) ([3]; metal 0.374 mM, None = 100): 0%

O.O.O.O.O.O.O.O=S(=O)([O-])[O-].[Cu+2] [CuSO4.7H2 O]
Relative activity (%) ([3]; metal 0.19 mM, None = 100): 100% | Relative activity (%) ([3]; metal 0.374 mM, None = 100): 61.9%

[Cu+2] [Cu^2+]
effect on the enzyme activity (in words) [3]: inhibited; also recorded: Inhibition

O=C(CO)[C@@H](O)[C@H](O)[C@H](O)CO [D-Fructose]
activity at 100000 µM [2]: 0%

O=C[C@H](O)[C@@H](O)[C@H](O)[C@H](O)CO [D-Glucose]
relative activity, times higher than that for L-sorbosone [2]: ~2 times | activity at 100000 µM [2]: 189%

O=CC(=O)[C@@H](O)[C@H](O)[C@H](O)CO [D-Glucosone]
activity at 100000 µM [2]: 77.8%

O=C[C@@H](O)[C@@H](O)[C@H](O)[C@H](O)CO [D-Mannose]
activity at 100000 µM [2]: 62.2%

O=C[C@H](O)[C@H](O)[C@H](O)CO [D-Ribose]
activity at 100000 µM [2]: 33.3%

OC[C@@H](O)[C@@H](O)[C@H](O)[C@@H](O)CO [D-Sorbitol]
activity at 100000 µM [2]: 0%

O=C(O)CN(CCN(CC(=O)O)CC(=O)O)CC(=O)O [EDTA, ethylenediamine tetraacetic acid, reference compound]
effect on the enzyme activity (in words) [3]: strongly inhibited; also recorded: Inhibition | activity at 194 µM [3, 4]: 3.8% | activity at 480 µM [3, 4]: 2.6% | activity at 980 µM [3, 4]: 1.6%

O.O=S(=O)([O-])[O-].O=S(=O)([O-])[O-].O=S(=O)([O-])[O-].[Fe+3].[Fe+3] [Fe2 (SO4)3.nH2 O]
Relative activity (%) ([3]; metal 0.0387 mM, None = 100): 100% | Relative activity (%) ([3]; metal 0.228 mM, None = 100): 64.0% | Relative activity (%) ([3]; metal 0.374 mM, None = 100): 44.9% | Relative activity (%) ([3]; metal 0.41 mM, None = 100): 30.4%

[Fe+3] [Fe^3+]
effect on the enzyme activity (in words) [3]: inhibited

O=C(CO)[C@@H](O)[C@H](O)[C@@H](O)CO [L-Sorbose]
activity at 100000 µM [2]: 0%

O=CC(=O)[C@@H](O)[C@H](O)[C@@H](O)CO [L-Sorbosone]
activity at 100000 µM [2]: 100%

O.O.O.O.O.O.O.O=S(=O)([O-])[O-].[Mg+2] [MgSO4.7H2 O]
Relative activity (%) ([3]; metal 0.19 mM, None = 100): 79.3% | Relative activity (%) ([3]; metal 0.374 mM, None = 100): 39.9%

[Mg+2] [Mg^2+]
effect on the enzyme activity (in words) [3]: inhibited

[Na+].[Na+].[O]=[Mo](=[O])([O-])[O-] [Mo^6+]
effect on the enzyme activity (in words) [3]: inhibited

O=C(O)CI [Monoiodoacetate, reference compound]
activity at 950 µM [3, 4]: 93.7% | activity at 1870 µM [3, 4]: 87.3% | inhibition at 1870 µM [3]: 13%

CCN1C(=O)C=CC1=O [N-Ethylmaleimide, reference compound]
inhibition at 1870 µM ([3]; 1.87 mM): 24% | activity at 950 µM [3, 5]: 94.1% | activity at 1870 µM [3, 6]: 76.5%

O.O.O.O.O.O.O.O=[As]([O-])([O-])O.[Na+].[Na+] [Na2 HAsO4.7H2 O, reference compound]
Relative activity (%) ([3]; compound 0.950 mM, None = 100): 100% | Relative activity (%) ([3]; compound 1.870 mM, None = 100): 107.1%

O.O.[Na+].[Na+].[O]=[Mo](=[O])([O-])[O-] [Na2 MoO4.2H2 O]
Relative activity (%) ([3]; metal 0.19 mM, None = 100): 69.7% | Relative activity (%) ([3]; metal 0.374 mM, None = 100): 42.1%

O.O.O.O.O.O.O=S(=O)([O-])[O-].[Ni+2] [NiSO4.6H2 O]
Relative activity (%) ([3]; metal 0.375 mM, None = 100): 17.6%

[Ni+2] [Ni^2+]
effect on the enzyme activity (in words) [3]: inhibited; also recorded: Inhibition

O=C(O)c1cc(C(=O)O)c2c(n1)C(=O)C(=O)c1cc(C(=O)O)[nH]c1-2 [PQQ, pyrroloquinoline quinone, reference compound]
effect on the enzyme activity (in words) [3]: Stimulator | activation at 10 µM ([3]; 0.01 mM, read-out: stimulation of the activity): ~50% | activity at 10 µM ([3]; compound 0.01 mM, None = 100, read-out: Relative activity (%)): 148%

C=C[C@H]1C[N@@]2CC[C@H]1C[C@H]2[C@H](O)c1ccnc2ccc(OC)cc12 [Quinine, reference compound]
activity at 950 µM [3, 5]: 118% | activity at 1870 µM [3, 6]: 112%

[F-].[Na+] [Sodium fluoride, reference compound]
Relative activity (%) [3]: 100% and 105.8%

O=C(O)CF [Sodium fluoroacetate, reference compound]
activity at 950 µM [3, 5]: 118% | activity at 1870 µM [3, 6]: 127%

[Cl][Ti]([Cl])([Cl])[Cl] [TiCl4]
Relative activity (%) ([3]; metal 0.19 mM, None = 100): 100% | Relative activity (%) ([3]; metal 0.374 mM, None = 100): 80%

[Ti+4] [Ti^4+]
effect on the enzyme activity (in words) [3]: inhibited

[Cl-].[Cl-].[Zn+2] [ZnCl2]
Relative activity (%) ([3]; metal 0.19 mM, None = 100): 36.1% | Relative activity (%) ([3]; metal 0.374 mM, None = 100): 21.1%

O.O.O.O.O.O.O.O=S(=O)([O-])[O-].[Zn+2] [ZnSO4.7H2 O]
Relative activity (%) ([3]; metal 0.374 mM, None = 100): 32.6%

[Zn+2] [Zn^2+]
effect on the enzyme activity (in words) [3]: inhibited; also recorded: Inhibition

CC(C)O [iso-Propanol]
activity at 100000 µM [2]: 0%

CCCO [n-Propanol]
activity at 100000 µM [2]: 0%

NC(=O)c1ccc[n+]([C@@H]2O[C@H](COP(=O)([O-])OP(=O)(O)OC[C@H]3O[C@@H](n4cnc5c(N)ncnc54)[C@H](OP(=O)(O)O)[C@@H]3O)[C@@H](O)[C@H]2O)c1 [nicotine amide adenine dinucleotide phosphate]
suitability as electron acceptor (in words) [1]: not suitable

NC(=O)c1ccc[n+]([C@@H]2O[C@H](COP(=O)([O-])OP(=O)(O)OC[C@H]3O[C@@H](n4cnc5c(N)ncnc54)[C@H](O)[C@@H]3O)[C@@H](O)[C@H]2O)c1 [nicotine amide adenine dinucleotide]
suitability as electron acceptor (in words) [1]: not suitable

O=O [oxygen]
suitability as electron acceptor (in words) [1]: does not work; also recorded: not suitable

C[n+]1c2ccccc2nc2ccccc21 [phenazine methosulfate]
suitability as electron acceptor (in words) [1]: oxidizes L-sorbosone to 2-keto-L-gulonic acid in the presence of electron acceptors

cytochrome c
suitability as electron acceptor (in words) [1]: oxidizes L-sorbosone to 2-keto-L-gulonic acid in the presence of electron acceptors
